We go through ten compounds from patent publication US5099030A, “Novel compounds, pharmaceutical compositions, and methods for treating inflammation and pain” (The Procter & Gamble Company, priority 1991, dated 1992).

One series is described as follows: Rodent Hot Plate Test. It counts as in vivo, male Sprague-Dawley rats. The protocol: The degree of thermal analgesia obtained is determined using the "rodent hot plate test" (RHP). The RHP system is designed to detect and evaluate agents which elevate the threshold for the perception of pain. Classically, this method has been utilized primarily to evaluate opioid (narcotic) analgesic agents, such as morphine.
Male Sprague-Dawley rats (Charles River Breeding Laboratories Inc.) weighing between 100 and 125 grams upon arrival are used to evaluate the compounds of the present invention. Animals are double housed in stainless steel cages, and are fed Purina Rat Chow and tap water ad libitum. The animals are food fasted the afternoon proceeding the day of the study, and food is returned 5 hours post-treatment. Animals not being dosed by oral gavage are not fasted.
The apparatus for evaluating analgesic activity consists of an insulated copper hot plate whose surface is maintained at 55°±0.5° C. by a circulating water bath. A bottomless glass container (12" (30 cm) tall by 8" (20 cm) diameter) is used to restrict the animal to a defined area of the hot plate. After dosing, the animal is placed through the top opening of the container, and a stop watch is started when the animal makes contact with the plate. The stop-watch is stopped upon either of the following visually observed end points: (1) licking or biting of either hind paw, or (2) jumping. If the jump is not successful but both hind paws leave the surface of the plate in an effort to jump, this is considered jumping. The stop-watch is stopped at the end point and the animal is immediately removed from the hot plate. The time (latency) between the initial contact of the animal on the hot plate and the endpoint is recorded.
Prior to dosing, animals are tested on the hot plate. This is denoted as pretest or base line latency. Usually, the animals are dosed by oral gavage, using a 1 cubic cm glass syringe connected to a size 8 french catheter. The dose volume is 5 ml/kg. On occasion, the animals are dosed by either subcutaneous administration or intravenous injection. Using the subcutaneous administration, a 1 ml tuberculin syringe is connected to a 25 gauge 5/8 inch needle, and injected under the skin in the neck or back region. For intravenous dosing, a 1 ml tuberculin syringe is connected to a 25 gauge 3/4 inch winged infusion set, and injected into the tail vein. The dose volume for subcutaneous and intravenous routes is 1 ml/kg. The latency times are typically recorded at 1.5, 3, 5, and 24 hours post-treatment. Much shorter times are recorded for an intravenous administration.

The nature of series [1]: Oral soft gelatin capsules in human (Example VIII). It counts as in vivo. Particulars: two oral capsules, 225 mg of composition each, 60 kg human. The protocol:
(§1) A composition for oral administration is prepared by combining the following ingredients:
The octadecenamide is dissolved in the sesame oil with the aid of sonication and is packaged in soft gelatin capsules using methods known in the art.

Series [2] in a line: Oral syrup in human (Example IX). It counts as in vivo. Particulars: one teaspoon of syrup, 70 kg adult human. The protocol:
as §1
The above ingredients are combined to produce a syrup and are packaged under sterile conditions in 6 oz. bottles.

Series [3] in a line: Topical application to human forearm (Example X). It counts as in vivo. The settings on record: for local analgesic effect: replacing N-((4-(2-methyl-2-aminopropoxy)-3-methoxyphenyl)-methyl)-9Z-octadecenamide. The protocol: A composition for topical administration is prepared by combining the following ingredients:
The octadecenamide is dissolved in a solution containing the other ingredients. Application of 0.4 ml of the resulting liquid to a 80 cm^2 portion of the forearm of a 60 kg human produces local analgesia which lasts approximately two days.

Series [4] is described as follows: Mouse Abdominal Constriction Assay (phenylquinone writhing). It counts as in vivo, male CF-1 mice. Particulars: for % Analgesia (3 hrs post-dose): 3 hrs post-dose (time of peak analgesic effect). The protocol:
Compounds of the present invention are tested for analgesic activity using the mouse abdominal constriction assay. This assay is described in Hendershot and Forsaith, J. Pharmacol. Exo.
Male CF-1 mice (Charles River Breeding Laboratories, Inc.), weighing approximately 20 grams and food fasted overnight, are used in these assays. Test compounds are prepared for oral (p.o.) or subcutaneous (s.c.) administration, with compounds of the present invention being prepared in acidified (1N acetic acid) distilled deionized water so that the appropriate dose is given in 0.2 mls to a 20 gram mouse.
Ten minutes after the i.p. injection of phenylquinone, the number of full body writhes are counted for the succeeding ten minutes. Percent analgesia in this assay is calculated as follows: [formula]
A general note: In writhing tests, fewer writhes than in controls are read as antinociception.

The mark [5] stands for this setting: 0.4 ml to 80 cm^2 of forearm, 60 kg human.

In the case of `COc1ccc2c3c1O[C@H]1[C@@H](O)C=C[C@H]4[C@@H](C2)N(C)CC[C@@]341` [Codeine Phosphate, reference compound], the “Mean Latency Times” value in “Rodent Hot Plate Test” (50 mg/kg oral, 1 hr post dose) is 8.7 s; in the series “Rodent Hot Plate Test” (50 mg/kg oral, 2 hr post dose) it was 6.4 s; in “Rodent Hot Plate Test” (50 mg/kg oral, 4 hr post dose), 6.5 s; in the series “Rodent Hot Plate Test” (100 mg/kg oral, 1 hr post dose) it was 8.5 s; in “Rodent Hot Plate Test” (100 mg/kg oral, 2 hr post dose), 8.9 s; in “Rodent Hot Plate Test” (100 mg/kg oral, 4 hr post dose) it was 6.0 s. Moreover, the “Mean Latency Times” value worked out at 16.9 s in “Rodent Hot Plate Test” (200 mg/kg oral, 1 hr post dose); 21.0 s in “Rodent Hot Plate Test” (200 mg/kg oral, 2 hr post dose); 11.7 s in the series “Rodent Hot Plate Test” (200 mg/kg oral, 4 hr post dose); 26.5 s in “Rodent Hot Plate Test” (400 mg/kg oral, 1 hr post dose); 28.4 s in “Rodent Hot Plate Test” (400 mg/kg oral, 2 hr post dose); 24.6 s in “Rodent Hot Plate Test” (400 mg/kg oral, 4 hr post dose).
For `CCCCCCCC/C=C\CCCCCCCC(=O)NCc1ccc(OC[C@@H](N)C(C)C)c(OC)c1` [N-((4-(2(S)-amino-3-methylbutoxy)-3-methoxyphenyl)methyl)-9Z-octadecenamide], in series [1], the analgesia result is “increased analgesic effect” and the reduction of inflammation result is reported as “substantially similar reduction of inflammation”. In addition, in series [2], the analgesia result was “substantially similar reduction of inflammation and analgesic effect”; the reduction of inflammation entry was “substantially similar reduction of inflammation”. Further, the local analgesic effect entry in series [3] was “substantially similar local analgesic effect”.
For `CCCCCCCC/C=C\CCCCCCCC(=O)NCc1ccc(OCC(N)C(=O)O)c(OC)c1` (centres unmarked) [N-((4-(2-amino-2-carboxyethoxy)-3-methoxyphenyl)-methyl)-9Z-octadecenamide], in series [1], the analgesia result was “increased analgesic effect” and the reduction of inflammation result is on record as “substantially similar reduction of inflammation”. Further, in series [2], the analgesia result is “substantially similar reduction of inflammation and analgesic effect”; the reduction of inflammation result was “substantially similar reduction of inflammation”. In addition, the local analgesic effect result in series [3] is “substantially similar local analgesic effect”.
In the case of `CCCCCCCC/C=C\CCCCCCCC(=O)NCc1ccc(OCC(N)CO)c(OC)c1` (centres unmarked) [N-((4-(2-amino-3-hydroxypropoxy)-3-methoxyphenyl)-methyl)-9Z-octadecenamide], in series [1], the analgesia entry is given as “increased analgesic effect” and the reduction of inflammation result is given as “substantially similar reduction of inflammation”. In series [2], the analgesia result is “substantially similar reduction of inflammation and analgesic effect”; the reduction of inflammation result was “substantially similar reduction of inflammation”. Moreover, in series [3], the local analgesic effect entry is given as “substantially similar local analgesic effect”.
Turning to `CCCCCCCCC(=O)NCc1ccc(OCCN)c(OC)c1` [N-((4-(2-aminoethoxy)-3-methoxyphenyl)-methyl)-nonanamide], the analgesia entry was “increased analgesic effect” in series [1]; “substantially similar reduction of inflammation and analgesic effect” in series [2]. Besides, the reduction of inflammation result in series [1] and in series [2] was “substantially similar reduction of inflammation” in each case. The “Mean Latency Times” value is 7.5 s in “Rodent Hot Plate Test” (50 mg/kg oral, 3 hr post dose); 7.2 s in “Rodent Hot Plate Test” (50 mg/kg oral, 5 hr post dose); 8.1 s in “Rodent Hot Plate Test” (50 mg/kg oral, 24 hr post dose); 9.9 s in the series “Rodent Hot Plate Test” (100 mg/kg oral, 3 hr post dose); 10.2 s in the series “Rodent Hot Plate Test” (100 mg/kg oral, 5 hr post dose); 12.3 s in the series “Rodent Hot Plate Test” (100 mg/kg oral, 24 hr post dose). Further, the “Mean Latency Times” value in the series “Rodent Hot Plate Test” (200 mg/kg oral, 3 hr post dose) was found to be 10.8 s; in “Rodent Hot Plate Test” (200 mg/kg oral, 5 hr post dose) it was 16.4 s; in “Rodent Hot Plate Test” (200 mg/kg oral, 24 hr post dose), 22.0 s; in “Rodent Hot Plate Test” (300 mg/kg oral, 3 hr post dose), 14.1 s; in the series “Rodent Hot Plate Test” (300 mg/kg oral, 5 hr post dose), 14.6 s; in “Rodent Hot Plate Test” (300 mg/kg oral, 24 hr post dose), 20.3 s.
For `CCCCCCCC/C=C\CCCCCCCC(=O)NCc1ccc(OCC(C)(C)N)c(OC)c1` [N-((4-(2-methyl-2-aminopropoxy)-3-methoxyphenyl)-methyl)-9Z-octadecenamide], in series [1], the analgesia entry is listed as “increased analgesic effect” and the reduction of inflammation entry was “substantially similar reduction of inflammation”. In series [3] (setting [5]), the “duration of local analgesia” value is reported as “approximately two” and the skin irritation result is “Little or no skin irritation”.
For the compound `CCCCCCCCC(=O)NCc1ccc(OCC(C)(C)N)c(OC)c1` [N-((4-(2-methyl-2-aminopropoxy)-3-methoxyphenyl)-methyl)-nonanamide], in series [3], the local analgesic effect entry was “substantially similar local analgesic effect”.
As to `CCCCCCCC/C=C\CCCCCCCC(=O)NCc1ccc(OCCC(C)COCC(C)(C)N)c(OC)c1` (centres unmarked) [N-((4-(2-methyl-2-aminopropoxy)-3-methylbutoxy)-3-methoxyphenyl)methyl)-9Z-octadecenamide], in series [2], the analgesia result was “substantially similar reduction of inflammation and analgesic effect”; the reduction of inflammation entry is “substantially similar reduction of inflammation”.
For `CCCCCCCC/C=C\CCCCCCCC(=O)NCc1ccc(O)c(OC)c1` [N-Vanillyloleamide, N-vanillyloleamide, reference compound], the “% Analgesia (3 hrs post-dose)” value is 35.4% in series [4] (0.75 mg/kg subcutaneous); 62.8% in series [4] (1.5 mg/kg subcutaneous); 76.1% in series [4] (2.25 mg/kg subcutaneous); 36% in series [4] (100 mg/kg oral); 60% in series [4] (200 mg/kg oral); 79% in series [4] (400 mg/kg oral). The “time of peak analgesic effect” value in series [4] (mouse, in vivo) is on record as 3 hours post-dose.
Consider `CCCCCCCCNC(=O)Cc1ccc(OCCN)c(OC)c1` [N-octanyl-4-(2-aminoethoxy)-3-methoxyphenylacetamide], for which, in series [1], the analgesia result was “increased analgesic effect” and the reduction of inflammation result is “substantially similar reduction of inflammation”. Further, in series [2], the analgesia entry was “substantially similar reduction of inflammation and analgesic effect”; the reduction of inflammation result is “substantially similar reduction of inflammation”. Moreover, the local analgesic effect result in series [3] is “substantially similar local analgesic effect”.
